Laboratory results reported in patent publication US20210269824A1, “VIRAL VECTOR FOR TREATING AUTOIMMUNE DISEASE AND DIABETES AND CONSTRUCTION METHOD AND APPLICATION THEREOF” (Guangzhou Huazhen Pharmaceutical Co., Ltd., priority 2017, published 2021).

Test system: peripheral blood CD4 T-cells of patients with type 1 diabetes
Assay: Differentiation of peripheral blood CD4 T-cells (Th1, Th2, Th17, Treg) after in vitro treatment, flow cytometry
Assay type: cell-based, human
Details: 100 μM, 24 h in vitro, lymphocytes of type 1 diabetes patients
Procedure: (1) 5 ml peripheral blood was extracted from patients and normal humans separately, diluted twice with PBS of pH 7.2, and then mixed with lymphocyte separation solution Lymphoprep (Axis-Shield, Norway), centrifuged at 3500 rpm for 20 min, then the lymphocytes were taken out and cultured in RPMI1640 medium (purchased from Gibco) to obtain the cultured lymphocytes. The above cultured lymphocytes were treated in vitro with DHA (docosahexaenoic acid) at a final concentration of 100 μM, EPA (eicosapentaenoic acid) at a final concentration of 100 μM, and AA (arachidonic acid) at a final concentration of 100 μM for 24 h, respectively. After treating, changes in intracellular cytokines of CD4 T-cells in the above lymphocytes were detected. (The above DHA, EPA and AA are all purchased from Sigma).
(2) labeling of intracellular cytokines of CD4 T-cells: The lymphocytes (number up to 1×10^5) from patients and normal humans in the above steps were placed to different marked tubes. Labeled fluorescent monoclonal antibodies CD3 (0.1 μg) and CD8 (0.1 μg) were added into each tube. Then 1 ml paraformaldehyde having a concentration of 4% by weight was added into each tube, mixed well and incubated at room temperature (20° C.-30° C.) for 20 min. 1 ml intraprep permeabilization reagent, i.e. 0.5% saponin, was added, incubated at room temperature (20° C.-30° C.) for 30 min, then centrifuged for 5 min at 300 g, 4° C. to obtain a supernatant and a precipitate. The supernatant was removed, and 80 μl 0.5% saponin was added to re-suspend the precipitate to obtain suspensions. The obtained suspensions were labeled respectively with IFN-γ fluorescent monoclonal antibody (0.1 μg), IL-17 fluorescent monoclonal antibody (0.1 μg), IL-4 fluorescent monoclonal antibody (0.1 μg), and Foxp3 fluorescent monoclonal antibody (0.1 μg), and incubated in dark place at 4° C. for 1 h (for the suspension labeled with Foxp3 fluorescent monoclonal antibody, incubation and rupture took 8 h). The labeled cells were washed three times with 0.5% saponin, centrifuged for 5 min at 300 g, 4° C. to obtain a supernatant and a precipitate. The supernatant was removed, and the precipitate was fixed with paraformaldehyde having a mass concentration of 1%. After 24 h, percentages of Th1, Th2, Th17 and Treg cells were analyzed with a flow cytometer Accuri-C6. The antibodies and instruments used in the above steps were all purchased from BD Bioscience.
The CON in FIG. 2 represents a control group, i.e. the lymphocytes of peripheral blood from normal humans not treated with DHA, EPA or AA. The CON in FIG. 3 represents a control group, i.e. the lymphocytes of peripheral blood from patients not treated with DHA, EPA, or AA. In FIG. 2, figures A, B, C, D, and E show percentages of Th1, Th2, Th1/Th2, Th17 and Treg cells in peripheral blood CD4 T-cells of normal subjects, respectively, and figures F, G, H, I and J show percentages of Th1, Th2, Th1/Th2, Th17 and Treg cells in peripheral blood CD4 T-cells of patients, respectively. In FIG. 3, figures A, B, C, and D show percentages of transcription factors T-bet, GATA3, RORγT, and Foxp3 in peripheral blood CD4 T-cells of patients, respectively. As shown in FIGS. 2-3, in peripheral blood CD4 T-cells of patients with type 1 diabetes treated with DHA, EPA and AA respectively, the percentages of Th1 and Th17 cells decreased, and the percentages of Th2 and Treg cells increased, and the ratio of Th1/Th2 and the ratio of T17/Treg were rebalanced.

For `CCCCC/C=C\C/C=C\C/C=C\C/C=C\CCCC(=O)O` [AA, arachidonic acid], the “ratio of T17/Treg” value was “rebalanced”, the “ratio of Th1/Th2” value was “rebalanced” and the “percentage of Th1 cells” value (vs untreated) was “decreased”. The “percentage of Th2 cells” value (vs untreated) was “increased”, the “percentage of Th17 cells” value (vs untreated) was “decreased” and the “percentage of Treg cells” value (vs untreated) was “increased”.
